Broadly, the Cmax is the maximum level reached in the sampled fluid or tissue. As usually defined, the IC50 is the midpoint of a concentration-inhibition curve. A low value points to inhibition by little substance.

Tested on in the first data set: not listed separately
Briefly: Pharmacokinetic assay for evaluation of oral absorption potential. Type of data set: in vivo. Particulars: male Sprague Dawley rats, oral gavage 15 mg/kg in 20% hydroxy-beta-cyclo dextran, plasma, N = 2; read-out: CMax (μM) @ 2 h. As for the experimental part:
Male Sprague Dawley rats, weighing 250-300 g, were fasted overnight then dosed by oral gavage at a level of 15 mg/kg with a compound. Compounds were formulated in 20% hydroxy-beta-cyclo dextran.
Blood samples (0.5 mL) were collected into lithium heparinized tubes at 0.5, 1.0 and 2.0 h post dose via orbital sinus puncture. Blood samples were centrifuged at 2000 rpm for ˜3 min for cell removal, approximately 200 μL of plasma supernatant was then transferred to a clean vial, frozen then placed on dry ice and delivered to SFBC Analytical Labs, Inc. for analysis.
Plasma samples were prepared as follows. Two hundred microliters of acetonitrile containing 1 μM internal standard was added to 100 μL of plasma to precipitate proteins. Samples were centrifuged at 5000 g for 5 min and supernatant removed for analysis by LC-MS. Two hundred microliters of water was added to adjust sample solvent strength and prevent peak splitting. Calibration standards were prepared by adding appropriate volumes of stock solution directly into plasma and treated identically to collected plasma samples. Calibration standards were prepared in the range of 0.1 to 10 μM for quantitation. LC-MS analysis was performed using MRM (Multiple Reaction Monitoring) detection of characteristic ions for each drug candidate and internal standard.
Turning to `O=C(NC=Cc1ccccc1)C(c1cccc2ccccc12)P1(=O)OCCCO1` (stereo not shown) [Cpd 178, 2-Naphthalen-1-yl-2-(2-oxo-2l5-[1,3,2]dioxaphosphinan-2-yl)-N-styryl-acetamide], the Cmax was 4.1 ± 0.28 µM.

Staying with this data set, now noted: rat; male Sprague Dawley rats, oral gavage 15 mg/kg in 20% hydroxy-beta-cyclo dextran, plasma, N = 2.
`CC(C)(C)C(=O)OCOP(=O)(O)C(C(=O)N/C=C/c1ccccc1)c1cccc2ccccc12` (stereo not shown) [Cpd 177] registered a Cmax at 2 h of 2 ± 1.1 µM. Still for that read-out and setting: as for `CC(C)(C)C(=O)OCOP(=O)(O)C(C(=O)N/C=C/c1ccc(F)c(F)c1)c1csc2ccc(Cl)cc12` (stereo not shown) [Cpd 187, 2,2-Dimethyl-propionic acid {(5-chloro-benzo[b]thiophen-3-yl)-[2-(3,4-difluoro-phenyl)-vinylcarbamoyl]-methyl}-hydroxy-phosphinoyloxymethyl ester], the figure is 21.4 ± 11 µM; as for `CP(=O)(OCCN)C(C(=O)NC=Cc1ccc(F)c(F)c1)c1csc2ccc(Cl)cc12` (stereo not shown) [Cpd 184, {(5-Chloro-benzo[b]thiophen-3-yl)-[2-(3,4-difluoro-phenyl)-vinylcarbamoyl]-methyl}-methyl-phosphinic acid 2-amino-ethyl ester], 0.1 ± 0.05 µM; as for `CCN(CC)C(=O)COP(C)(=O)C(C(=O)NC=Cc1ccc(F)c(F)c1)c1csc2ccc(Cl)cc12` (stereo not shown) [Cpd 185, {(5-Chloro-benzo[b]thiophen-3-yl)-[2-(3,4-difluoro-phenyl)-vinylcarbamoyl]-methyl}-methyl-phosphinic acid diethylcarbamoylmethyl ester], 2.1 ± 0.23 µM.

A further data set addresses T1, human skin chymase (Homo sapiens, UniProt P23946).
T1 construct: using human skin chymase (Cortex Biochem); purchased Cortex Biochem
T1 sequence (P23946 22-247): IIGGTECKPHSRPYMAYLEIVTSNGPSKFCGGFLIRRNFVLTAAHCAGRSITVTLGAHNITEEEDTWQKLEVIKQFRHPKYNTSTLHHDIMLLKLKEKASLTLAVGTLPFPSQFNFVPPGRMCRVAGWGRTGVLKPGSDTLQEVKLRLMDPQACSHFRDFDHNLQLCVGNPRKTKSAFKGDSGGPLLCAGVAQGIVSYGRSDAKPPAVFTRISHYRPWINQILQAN
Briefly: Enzyme-catalyzed hydrolysis assay (chymase inhibition). Type of data set: biochemical. As to conditions: 10 nM enzyme, 0.7 mM Suc-Ala-Ala-Pro-Phe-pNa, pH 8.0, 37° C., 30 minutes. As for the experimental part:
Enzyme-catalyzed hydrolysis rates were measured spectro-photometrically using human skin chymase (Cortex Biochem), a chromogenic substrate (Suc-Ala-Ala-Pro-Phe-pNa) (Bachem) in aqueous buffer (450 mM Tris, 1800 mM NaCl, pH 8.0), and a microplate reader (Molecular Devices). […] Percent inhibition was calculated by comparing the initial reaction slopes of the samples without inhibitor to those with inhibitor. IC50 values were determined using a four parameter fit logistics model. The term “NT” indicates a compound that was not tested.
`CP(=O)(O)C(C(=O)N/C=C/c1ccccc1NC(=O)NC(N)=O)c1csc2ccc(Cl)cc12` (stereo not shown) [Cpd 159] gave an IC50 of 3 ± 0.19 µM. The same measure, in the same setting: as for `O=C(Nc1ccc2[nH]ccc2c1)C(c1cccc2ccccc12)P(=O)(O)O` (stereo not shown) [Cpd 129], the figure is 7.4 µM. Take `CP(=O)(O)C(C(=O)N/C=C/c1cccc([N+](=O)[O-])c1)c1csc2ccc(Cl)cc12` (stereo not shown) [Cpd 166]: the IC50 worked out at 0.0387 ± 0.02 µM.

Take `COc1ccccc1/C=C/NC(=O)C(c1csc2ccc(Cl)cc12)P(C)(=O)O` (stereo not shown) [Cpd 145]: the IC50 was 0.035 ± 0.02 µM. The molecule `O=C(Nc1ccc2ccccc2c1)C(c1csc2cccc(Br)c12)P(=O)(O)O` (stereo not shown) [Cpd 99] yielded an IC50 of 2.96 ± 1.18 µM. Compared with the last molecule, the IC50 is about 85-fold higher.

Regarding `Cn1cc(C(C(=O)Nc2ccc3ccccc3c2)P(=O)(O)O)c2c(Cl)cccc21` (stereo not shown) [Cpd 63, [(4-Chloro-1-methyl-1H-indol-3-yl)-(naphthalen-2-ylcarbamoyl)-methyl]-phosphonic acid], the IC50 was found to be 0.83 ± 0.18 µM. Compared with the last molecule, the IC50 is about 3.6-fold lower. On the same count and under the same terms, as for `O=C(Nc1ccc2ccccc2c1)C(c1csc2ccc(Cl)cc12)P(=O)(O)CCCc1ccccc1` (stereo not shown) [Cpd 48], the figure is 0.421 ± 0.151 µM; as for `O=C(Nc1cc2ccccc2cc1CNC1CCCC1)C(c1cccc2ccccc12)P(=O)(O)O` (stereo not shown) [Cpd 124], 6.7 µM. On the same count and under the same terms, as for `O=C(Nc1cc2ccccc2cc1C(=O)N1CCC(CCc2ccccc2)C1)C(c1cccc2ccccc12)P(=O)(O)O` (stereo not shown) [Cpd 54], the figure is 0.51 ± 0.124 µM.

`COc1ccc2c(c1)c(C(C(=O)Nc1ccc3ccccc3c1)P(=O)(O)O)cn2C` (stereo not shown) [Cpd 74] displayed a concentration for half-maximal inhibition (IC50) of 1.39 ± 0.554 µM.

Molecule `COc1cccc(/C=C/NC(=O)C(c2csc3ccc(Cl)cc23)P(C)(=O)O)c1` (stereo not shown) [Cpd 154] registered an IC50 of 0.036 ± 0.05 µM. `O=C(Nc1ccccc1)OCc1cc2ccccc2cc1NC(=O)C(c1cccc2ccccc12)P(=O)(O)O` (stereo not shown) [Cpd 94] had an IC50 of 2.75 µM. The same measure, in the same setting: as for `CP(=O)(O)C(C(=O)N/C=C/c1cc(F)ccc1F)c1csc2ccc(Cl)cc12` (stereo not shown) [Cpd 169], the figure is 0.042 µM. Same read-out and setting: with `O=P(O)(O)C(C(=S)Nc1ccc2ccccc2c1)c1csc2ccc(Cl)cc12` (stereo not shown) [Cpd 45, [(5-Chloro-benzo[b]thiophen-3-yl)-(naphthalen-2-ylthiocarbamoyl)-methyl]-phosphonic acid] the figure was 0.371 ± 0.11 µM.

Regarding `Cn1cc(C(C(=O)Nc2ccc3ccccc3c2)P(=O)(O)O)c2cc(Br)ccc21` (stereo not shown) [Cpd 13], the IC50 is 0.04 ± 0.02 µM.

As to `O=C(Nc1ccc2ccccc2c1)C(c1cccc2c1ccn2-c1ccccc1)P(=O)(O)O` (stereo not shown) [Cpd 128], half-maximal inhibition (IC50) was put at 7.3 µM. `O=C(Nc1cccc(Oc2ccccc2)c1)C(c1cccc2ccccc12)P(=O)(O)O` (stereo not shown) [Cpd 138] displayed an IC50 of 8.7 µM. Same read-out and setting: as for `CP(=O)(O)C(C(=O)N/C=C/c1ccccc1F)c1csc2ccc(Cl)cc12` (stereo not shown) [Cpd 21], the figure is 0.08 ± 0.02 µM; as for `CP(=O)(O)C(C(=O)N/C=C/c1cc(Cl)cc(Cl)c1)c1csc2ccc(Cl)cc12` (stereo not shown) [Cpd 170], 0.0031 µM; as for `O=C(Nc1cc2ccccc2cc1NCCCCCc1ccccc1)C(c1cccc2ccccc12)P(=O)(O)O` (stereo not shown) [Cpd 110], 4.45 µM. On the same count and under the same terms, with `CN(CCCC1c2ccccc2C=Cc2ccccc21)Cc1cc2ccccc2cc1NC(=O)C(c1cccc2ccccc12)P(=O)(O)O` (stereo not shown) [Cpd 112] the figure was 4.74 ± 1.65 µM; with `O=C(Nc1ccc2ccccc2c1)C(c1csc2cc(Br)ccc12)P(=O)(O)O` (stereo not shown) [Cpd 76], 1.43 ± 0.451 µM.

The molecule `O=C(Nc1cc2ccccc2cc1CNCc1ccccc1)C(c1cccc2ccccc12)P(=O)(O)O` (stereo not shown) [Cpd 107] yielded an IC50 of 4.3 ± 0.03 µM. For `O=C(Nc1cc2ccccc2cc1C(=O)N1CCC(n2nnc3ccccc32)CC1)C(c1cccc2ccccc12)P(=O)(O)O` (stereo not shown) [Cpd 100], the IC50 came out at 3 ± 1.43 µM. Still for that read-out and setting: as for `O=C(Nc1cc2ccccc2cc1C(=O)N1CCC(n2c(=O)[nH]c3ccc(Cl)cc32)CC1)C(c1cccc2ccccc12)P(=O)(O)O` (stereo not shown) [Cpd 60, ({3-[4-(6-Chloro-2-oxo-2,3-dihydro-benzoimidazol-1-yl)-piperidine-1-carbonyl]-naphthalen-2-ylcarbamoyl}-naphthalen-1-yl-methyl)-phosphonic acid], the figure is 0.663 µM; as for `O=C(Nc1ccc2ccccc2c1)C(c1csc2ccc(Cl)cc12)P(=O)(O)CCCc1ccc2c(c1)OCO2` (stereo not shown) [Cpd 39], 0.31 ± 0.04 µM; as for `O=C(Nc1ccc2ncccc2c1)C(c1cccc2ccccc12)P(=O)(O)O` (stereo not shown) [Cpd 79], 1.6 µM. On to `Cn1cc(C(C(=O)Nc2ccc3ccccc3c2)P(=O)(O)O)c2cccc(Cl)c21` (stereo not shown) [Cpd 58], for which the IC50 was 0.63 ± 0.13 µM. As to `O=C(Nc1ccc2ccccc2c1)C(c1csc2ccc(Cl)cc12)S(=O)(=O)O` (stereo not shown) [Cpd 50, [(5-Chloro-benzo[b]thiophen-3-yl)-(naphthalen-2-ylcarbamoyl)-methyl]-sulfonic acid], 0.43 ± 0.15 µM corresponded to half-maximal inhibition (IC50). Same read-out and setting: with `O=C(Nc1cc2ccccc2cc1NC(=O)C(c1cccc2ccccc12)P(=O)(O)O)C1CCN(C(=O)c2ccc3ccccc3c2)CC1` (stereo not shown) [Cpd 141, [(3-{[1-(Naphthalene-2-carbonyl)-piperidine-4-carbonyl]-amino}-naphthalen-2-ylcarbamoyl)-naphthalen-1-yl-methyl]-phosphonic acid] the figure was 9.5 µM. Same read-out and setting: with `CP(=O)(O)C(C(=O)NC=Cc1ccccc1NC(N)=O)c1csc2ccc(Cl)cc12` (stereo not shown) [Cpd 158, {(5-Chloro-benzo[b]thiophen-3-yl)-[2-(2-ureido-phenyl)-vinylcarbamoyl]-methyl}-methyl-phosphinic acid] the figure was 6 ± 1.9 µM; with `O=C(Nc1cc2ccccc2cc1C(=O)N1CCC(c2c[nH]c3ccccc23)CC1)C(c1cccc2ccccc12)P(=O)(O)O` (stereo not shown) [Cpd 83], 1.72 µM.

As to `COC(=O)COc1c(NC(=O)C(c2cccc3ccccc23)P(=O)(O)O)ccc2ccccc12` (stereo not shown) [Cpd 134, [2-(2-Naphthalen-1-yl-2-phosphono-acetylamino)-naphthalen-1-yloxy]-acetic acid methyl ester], the IC50 was found to be 8.11 ± 4.75 µM. Same read-out and setting: with `COC(=O)c1cc2ccccc2cc1NC(=O)C(c1cccc2ccccc12)P(=O)(O)O` (stereo not shown) [Cpd 75, 3-(2-Naphthalen-1-yl-2-phosphono-acetylamino)-naphthalene-2-carboxylic acid methyl ester] the figure was 1.4 ± 0.6 µM; with `O=C(NCc1ccccc1)OCc1cc2ccccc2cc1NC(=O)C(c1cccc2ccccc12)P(=O)(O)O` (stereo not shown) [Cpd 72, [(3-Benzylcarbamoyloxymethyl-naphthalen-2-ylcarbamoyl)-naphthalen-1-yl-methyl]-phosphonic acid], 1.3 ± 0.61 µM; with `O=C(Nc1ccc2ccccc2c1)C(c1csc2ccc(-c3ccccc3)cc12)P(=O)(O)O` (stereo not shown) [Cpd 71, [(5-phenyl-benzo[b]thiophen-3-yl)-(naphthalen-2-ylcarbamoyl)-methyl]-phosphonic acid], 1 ± 0.3 µM. For `CP(=O)(O)C(C(=O)N/C=C/c1ccc(F)cc1)c1csc2ccc(Cl)cc12` (stereo not shown) [Cpd 24], 0.1 ± 0.033 µM corresponded to half-maximal inhibition (IC50). Turning to `Cn1cc(C(C(=O)Nc2ccc3ccccc3c2)P(=O)(O)O)c2cc(C#N)ccc21` (stereo not shown) [Cpd 65], the IC50 worked out at 0.84 ± 0.19 µM.

The record behind these values is patent US7459444B2, “Inhibitors of chymase” (Janssen Pharmaceutica N.V., priority 2004, dated 2008).
